In patent US20230158025A1 (UNIVERSITY OF UTAH RESEARCH FOUNDATION, priority 2020, published 2023):
Like-named read-outs stand apart in the source and are kept apart here.

Legend:
[1] = aqueous kinetic solubility
[2] = PAMPA permeability
[3] = target: recombinant human GALK1 (Homo sapiens, UniProt P51570); assay: hGALK1 biochemical activity assay (Kinase-Glo Plus, ATP depletion)
Method in brief: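 Recombinant human or mouse GALK1 (5 nM, with 100 μM galactose, in the added enzyme solution) was run with ATP (35 μM in the substrate solution) in HEPES pH 8.0 buffer. Compounds were tested at 11 1/3-step concentrations from 57.4 μM to 0.97 nM. After 1 h at room temperature, remaining ATP was read by Kinase-Glo Plus luminescence.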

[4] = target: recombinant mouse GALK1 (Mus musculus, UniProt Q9R0N0); assay: mGALK1 biochemical activity assay (Kinase-Glo Plus, ATP depletion)
Method in brief: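 Recombinant GALK1 (5 nM) with 100 μM galactose; GALK1 turnover read as ATP depletion by Kinase-Glo Plus luminescence. Reaction ran 1 h at room temperature before detection reagent was added.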

[5] = rat microsomal stability (RLM)
[6] = Tables 2-15, 35 μM ATP, 100 μM galactose, 1 h, bracketed figure after some values (e.g. −1.2) is undefined and not reported, read-out: hGALK IC50
[7] = recombinant human GALK1, Kinase-Glo Plus ATP depletion, read-out: hGALK
[8] = Tables 2-15, 35 μM ATP, 100 μM galactose, 1 h, bracketed figure after some values is undefined and not reported, read-out: mGALK IC50
[9] = recombinant mouse GALK1, Kinase-Glo Plus ATP depletion, read-out: mGALK
[10] = Tables 2-15, 35 μM ATP, 100 μM galactose, 1 h, bracketed figure after some values is undefined and not reported
[11] = recombinant mouse GALK1, Kinase-Glo Plus ATP depletion
[12] = recombinant human GALK1, Kinase-Glo Plus ATP depletion, bracketed figure in the cell, e.g. (−1.2), is not defined in the text shown, read-out: hGALK
[13] = recombinant mouse GALK1, Kinase-Glo Plus ATP depletion, bracketed figure in the cell, e.g. (−1.2), is not defined in the text shown, read-out: mGALK
[14] = microsomal stability half-life, minutes

Sequence of recombinant mouse GALK1 (Q9R0N0 whole entry): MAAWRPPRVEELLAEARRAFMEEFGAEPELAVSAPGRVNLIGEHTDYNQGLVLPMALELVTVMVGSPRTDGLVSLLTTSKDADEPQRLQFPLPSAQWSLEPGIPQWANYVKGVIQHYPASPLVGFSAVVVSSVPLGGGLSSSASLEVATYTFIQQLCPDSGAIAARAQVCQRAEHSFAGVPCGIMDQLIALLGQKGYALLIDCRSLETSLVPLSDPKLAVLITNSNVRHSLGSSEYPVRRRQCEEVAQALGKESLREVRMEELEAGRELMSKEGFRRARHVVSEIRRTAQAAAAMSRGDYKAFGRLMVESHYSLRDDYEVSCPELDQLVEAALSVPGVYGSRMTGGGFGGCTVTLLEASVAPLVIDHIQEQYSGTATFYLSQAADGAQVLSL
Sequence of recombinant human GALK1 (P51570 whole entry): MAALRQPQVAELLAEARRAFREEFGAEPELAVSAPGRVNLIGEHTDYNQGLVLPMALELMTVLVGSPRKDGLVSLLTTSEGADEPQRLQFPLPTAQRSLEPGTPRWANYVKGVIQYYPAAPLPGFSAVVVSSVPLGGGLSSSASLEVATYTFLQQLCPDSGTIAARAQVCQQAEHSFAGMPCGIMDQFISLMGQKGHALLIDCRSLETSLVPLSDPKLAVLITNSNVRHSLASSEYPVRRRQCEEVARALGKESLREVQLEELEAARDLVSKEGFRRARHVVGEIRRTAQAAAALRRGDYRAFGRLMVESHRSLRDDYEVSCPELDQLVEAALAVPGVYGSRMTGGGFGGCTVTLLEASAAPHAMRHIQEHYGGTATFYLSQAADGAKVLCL

Row | Sol. ([1]; aqueous kinetic solubility) | Perm. (1 × 10^−6 cm/sec) ([2]; PAMPA) | IC50 [3, 6] | IC50 [3, 7] | IC50 [4, 8] | IC50 [4, 9] | Metab. Stabil. (m) ([5]; microsomal stability half-life) | hGALK IC50 ([3]; Tables 2-15, 35 μM ATP, 100 μM galactose, 1 h, bracketed figure after some values (e.g. −1.2) is undefined and not reported) | hGALK (μM) ([3]; recombinant human GALK1, Kinase-Glo Plus ATP depletion) | mGALK IC50 [4, 10] | mGALK (μM) [4, 11] | Sol. [1] | Perm. (1 × 10^−6 cm/sec) [2] | Metab. Stabil. (m) ([5]; microsomal half-life) | IC50 [3, 12] | IC50 [4, 13] | Metab. Stabil. (m) [5, 14] | SMILES
1 | <1 µg/mL | <7.3 1 × 10^−6 cm/sec | 3.43 µM | 3.43 µM | 3.43 µM | 3.43 µM | >30 m |  |  |  |  |  |  |  |  |  |  | CC1=C(C(=O)Nc2ccc([N+](=O)[O-])cc2)C(c2ccccc2Cl)N=C(Nc2nc3ccccc3o2)N1 (stereo not drawn) [Compound 163, 2-(benzo[d]oxazol-2-ylamino)-4-(2-chlorophenyl)-6-methyl-N-(4-nitrophenyl)-1,4-dihydropyrimidine-5-carboxamide]
2 | 24.6 µg/mL | <1 1 × 10^−6 cm/sec |  | 4.85 µM |  | 9.68 µM | >30 m |  |  |  |  |  |  |  |  |  |  | CC1=C(C(=O)Nc2ccc(C(=O)O)nc2)C(c2ccccc2Cl)N=C(Nc2nc3ccccc3o2)N1 (stereo not drawn) [Compound 164, 5-(2-(benzo[d]oxazol-2-ylamino)-4-(2-chlorophenyl)-6-methyl-1,4-dihydropyrimidine-5-carboxamido)picolinic acid]
3 | <1 µg/mL | <9.2 1 × 10^−6 cm/sec |  |  |  |  | >30 m | inactive | in- active | inactive | in- active |  |  |  |  |  |  | CC1=C(C(=O)Nc2cccc(Cl)c2)C(c2ccccc2Cl)N=C(Nc2nc3ccccc3o2)N1 (stereo not drawn) [Compound 154, 2-(benzo[d]oxazol-2-ylamino)-N-(3-chlorophenyl)-4-(2-chlorophenyl)-6-methyl-1,4-dihydropyrimidine-5-carboxamide]
4 |  |  | 1.72 µM | 1.72 µM | 12.2 µM | 12.2 µM |  |  |  |  |  | >83 µg/mL | 2.85 1 × 10^−6 cm/sec | >30 m |  |  |  | CC1=C(C(=O)Nc2cc(C(=O)O)ccn2)C(c2cc(C(=O)O)ccc2Cl)N=C(Nc2nc3ccc(F)cc3o2)N1 (stereo not drawn) [Compound 73, 2-(4-(5-carboxy-2-chlorophenyl)-2-((6-fluorobenzo[d]oxazol-2-yl)amino)-6-methyl-1,4-dihydropyrimidine-5-carboxamido)isonicotinic acid]
5 | <1 µg/mL | 19.8 1 × 10^−6 cm/sec |  |  |  |  |  |  |  |  |  |  |  |  | 13.7 µM | 17.2 µM | >30 m | COc1ccc(Cl)c(C2N=C(Nc3nc4ccccc4o3)NC(C)=C2C(=O)Nc2nncs2)c1 (stereo not drawn) [Compound 269, 2-(benzo[d]oxazol-2-ylamino)-4-(2-chloro-5-methoxyphenyl)-6-methyl-N-(1,3,4-thiadiazol-2-yl)-1,4-dihydropyrimidine-5-carboxamide]
6 | 24.2 µg/mL | 807.7 1 × 10^−6 cm/sec | 1.37 µM |  | 12.2 µM | 12.2 µM | 15.67 m |  |  |  |  |  |  |  |  |  |  | CC1=C(C(=O)NCc2cnn(C)c2)C(c2ccccc2Cl)N=C(Nc2nc3ccccc3o2)N1 (stereo not drawn) [Compound 238, 2-(benzo[d]oxazol-2-ylamino)-4-(2-chlorophenyl)-6-methyl-N-((1-methyl-1H-pyrazol-4-yl)methyl)-1,4-dihydropyrimidine-5-carboxamide]
7 | 37.5 µg/mL | 32.7 1 × 10^−6 cm/sec | 10.9 µM | 10.9 µM | 6.85 µM | 6.85 µM | >30 m |  |  |  |  |  |  |  |  |  |  | CC1=C(C(=O)Nc2cccc(CN)c2)C(c2ccccc2Cl)N=C(Nc2nc3ccccc3o2)N1 (stereo not drawn) [Compound 171, N-(3-(aminomethyl)phenyl)-2-(benzo[d]oxazol-2-ylamino)-4-(2-chlorophenyl)-6-methyl-1,4-dihydropyrimidine-5-carboxamide]
8 | <1 µg/mL | <25.4 1 × 10^−6 cm/sec | 17.2 µM | 17.2 µM | 38.5 µM | 38.5 µM | >30 m |  |  |  |  |  |  |  |  |  |  | CC1=C(C(=O)Nc2cccc(-c3cn[nH]c3)c2)C(c2ccccc2Cl)N=C(Nc2nc3ccccc3o2)N1 (stereo not drawn) [Compound 178, N-(3-(1H-pyrazol-4-yl)phenyl)-2-(benzo[d]oxazol-2-ylamino)-4-(2-chlorophenyl)-6-methyl-1,4-dihydropyrimidine-5-carboxamide]
9 | <1 µg/mL | <1 1 × 10^−6 cm/sec |  |  |  |  |  |  |  |  |  |  |  |  | 3.85 µM | 19.3 µM | >30 m | CC1=C(C(=O)Nc2nncs2)C2(CCCC2)N=C(Nc2nc3ccccc3o2)N1 [Compound 252, 7-(benzo[d]oxazol-2-ylamino)-9-methyl-N-(1,3,4-thiadiazol-2-yl)-6,8-diazaspiro[4.5]deca-6,9-diene-10-carboxamide]
10 |  |  | 15.3 µM | 15.3 µM |  |  |  |  |  | inactive | in- active | >49 µg/mL | 62.84 1 × 10^−6 cm/sec | 6.149 m |  |  |  | CC1=C(C(=O)NCc2cnn(C)c2)C(c2ccc(C)cc2Cl)N=C(Nc2nc3ncccc3o2)N1 (stereo not drawn) [Compound 105, 4-(2-chloro-4-methylphenyl)-6-methyl-N-((1-methyl-1H-pyrazol-4-yl)methyl)-2-(oxazolo[4,5-b]pyridin-2-ylamino)-1,4-dihydropyrimidine-5-carboxamide]
11 | <1 µg/mL | <14.9 1 × 10^−6 cm/sec | 9.68 µM | 9.68 µM | 15.3 µM | 15.3 µM | >30 m |  |  |  |  |  |  |  |  |  |  | CC1=C(C(=O)Nc2ccc(Br)cc2)C(c2ccccc2Cl)N=C(Nc2nc3ccccc3o2)N1 (stereo not drawn) [Compound 150, 2-(benzo[d]oxazol-2-ylamino)-N-(4-bromophenyl)-4-(2-chlorophenyl)-6-methyl-1,4-dihydropyrimidine-5-carboxamide]
12 |  |  |  | 0.43 µM | 3.85 µM | 3.85 µM |  |  |  |  |  | >89 µg/mL | 26.5 1 × 10^−6 cm/sec | >30 m |  |  |  | CC1=C(C(=O)Nc2cc(C(=O)O)ccn2)C(c2ccc(N3CCOCC3)cc2Cl)N=C(Nc2nc3ccc(F)cc3o2)N1 (stereo not drawn) [Compound 59, 2-(4-(2-chloro-4-morpholinphenyl)-2-((6-fluorobenzo[d]oxazol-2-yl)amino)-6-methyl-1,4-dihydropyrimidine-5-carboxamido)isonicotinic acid]
13 | <1 µg/mL | 18.9 1 × 10^−6 cm/sec | 9.68 µM | 9.68 µM | 12.2 µM | 12.2 µM | >30 m |  |  |  |  |  |  |  |  |  |  | COC(=O)c1cccc(NC(=O)C2=C(C)NC(Nc3nc4ccccc4o3)=NC2c2ccccc2Cl)n1 (stereo not drawn) [Compound 197]
14 | 61.78 µg/mL | <9.8 1 × 10^−6 cm/sec |  |  |  |  |  |  |  |  |  |  |  |  | 12.2 µM | 12.2 µM | >30 m | CN(C)CCNC(=O)C1CC(=O)C2=C(C1)NC(Nc1nc3ccccc3o1)=NC2c1ccccc1Cl (stereo not drawn) [Compound 284, 2-(benzo[d]oxazol-2-ylamino)-4-(2-chlorophenyl)-N-(2-(dimethylamino)ethyl)-5-oxo-1,4,5,6,7,8-hexahydroquinazoline-7-carboxamide]
15 | 23.88 µg/mL | <4.7 1 × 10^−6 cm/sec |  |  |  |  |  |  |  |  |  |  |  |  | 6.85 µM | 7.69 µM | 30 m | O=C1CC(C(=O)N2CCNCC2)CC2=C1C(c1ccccc1Cl)N=C(Nc1nc3ccccc3o1)N2 (stereo not drawn) [Compound 282, 2-(benzo[d]oxazol-2-ylamino)-4-(2-chlorophenyl)-7-(piperazine-1-carbonyl)-4,5,6,8-tetrahydroquinazolin-5(1H)-one]
16 | 52.63 µg/mL | <1 1 × 10^−6 cm/sec |  |  |  |  |  |  |  |  |  |  |  |  | 3.85 µM | 6.85 µM | >30 m | O=C1CC(C(=O)O)CC2=C1C(c1ccccc1Cl)N=C(Nc1nc3ccccc3o1)N2 (stereo not drawn) [Compound 276, 2-(benzo[d]oxazol-2-ylamino)-4-(2-chlorophenyl)-5-oxo-1,4,5,6,7,8-hexahydroquinazoline-7-carboxylic acid]
17 |  |  | 4.85 µM | 4.85 µM | 19.3 µM | 19.3 µM |  |  |  |  |  | >51 µg/mL | <1 1 × 10^−6 cm/sec | >30 m |  |  |  | CC1=C(C(=O)Nc2cc(C(=O)O)ccn2)C(c2ccc(C)cc2Cl)N=C(Nc2nc3ncccc3o2)N1 (stereo not drawn) [Compound 102, 2-(4-(2-chloro-4-methylphenyl)-6-methyl-2-(oxazolo[4,5-b]pyridin-2-ylamino)-1,4-dihydropyrimidine-5-carboxamido)isonicotinic acid]
